Measured values taken from patent US10189816B2, “Substituted pyridines as inhibitors of human immunodeficiency virus replication” (priority 2015, dated 2019).

System: NL-RLuc virus
Assay: Inhibition of HIV replication (NL-RLuc reporter virus in MT-2 cells, luciferase readout)
Type: cell-based
Details: Human immunodeficiency virus 1, MT2, 120 h, read-out: Activity
From the text: Inhibition of HIV replication: A recombinant NL-RLuc proviral clone was constructed in which a section of the nef gene from NL4-3 was replaced with the Renilla Luciferase gene. This virus is fully infectious and can undergo multiple cycles of replication in cell culture. In addition, the luciferous reporter provides a simple and easy method for quantitating the extent of virus growth and consequently, the antiviral activity of test compounds. The plasmid pNLRLuc contains the proviral NL-Rluc DNA cloned into pUC18 at the PvuII site. The NL-RLuc virus was prepared by transfection of 293T cells with the plasmid pNLRLuc. Transfections were performed using the LipofectAMINE PLUS kit from Invitrogen (Carlsbad, Calif.) according to the manufacturer and the virus generated was titered in MT-2 cells. For susceptibility analyses, the titrated virus was used to infect MT-2 cells in the presence of compound, and after 5 days of incubation, cells were processed and quantitated for virus growth by the amount of expressed luciferase. Assay media was RPMI 1640 supplemented with 10% heat inactivated fetal bovine serum (FBS), 100 units/ml penicillin G/100 units/ml streptomycin, 10 mM HEPES buffer pH 7.55 and 2 mM L-glutamine. The results from at least 2 experiments were used to calculate the EC50 values. Luciferase was quantitated using the Dual Luciferase kit from Promega (Madison, Wis.). Susceptibility of viruses to compounds was determined by incubation in the presence of serial dilutions of the compound. The 50% effective concentration (EC50) was calculated by using the exponential form of the median effect equation where (Fa)=1/[1+(ED50/drug conc.)^m] (Johnson V A, Byington R T. Infectivity Assay. In Techniques in HIV Research. ed. Aldovini A, Walker B D. 71-76. New York: Stockton Press.1990). Activity equal to A refers to a compound having an EC50≤100 nM, while B and C denote compounds having an EC50 between 100 nM and 1 uM (B) or >1 uM (C).

Compound | EC50 [µM]
COc1ccc(C(C)C)cc1CN1CCc2cc(-c3c(C)nc(C)c([C@H](OC(C)(C)C)C(=O)O)c3N3CCC(C)(C)CC3)ccc2C1 [Compound 139, (S)-2-(tert-butoxy)-2-(4-(4,4-dimethylpiperidin-1-yl)-5-(2-(5-isopropyl-2-methoxybenzyl)-1,2,3,4-tetrahydroisoquinolin-6-yl)-2,6-dimethylpyridin-3-yl)acetic acid] | < 0.1
Cc1nc(C)c([C@H](OC(C)(C)C)C(=O)O)c(N2CCC(C)(C)CC2)c1-c1ccc2c(c1)CCN(Cc1ccc(OC(F)(F)C(F)F)cc1)C2 [Compound 125, (S)-2-(tert-butoxy)-2-(4-(4,4-dimethylpiperidin-1-yl)-2,6-dimethyl-5-(2-(4-(1,1,2,2-tetrafluoroethoxy)benzyl)-1,2,3,4-tetrahydroisoquinolin-6-yl)pyridin-3-yl)acetic acid] | < 0.1
Cc1ccc(CN2CCc3cc(-c4c(C)nc(C)c([C@H](OC(C)(C)C)C(=O)O)c4N4CCC(C)(C)CC4)ccc3C2)cc1F [Compound 18, (S)-2-(tert-butoxy)-2-(4-(4,4-dimethylpiperidin-1-yl)-5-(2-(3-fluoro-4-methylbenzyl)-1,2,3,4-tetrahydroisoquinolin-6-yl)-2,6-dimethylpyridin-3-yl)acetic acid] | < 0.1
Cc1ccc(F)c(CN2CCc3cc(-c4c(C)nc(C)c([C@H](OC(C)(C)C)C(=O)O)c4N4CCC(C)(C)CC4)ccc3C2)c1 [Compound 74, (S)-2-(tert-butoxy)-2-(4-(4,4-dimethylpiperidin-1-yl)-5-(2-(2-fluoro-5-methylbenzyl)-1,2,3,4-tetrahydroisoquinolin-6-yl)-2,6-dimethylpyridin-3-yl)acetic acid] | < 0.1
COc1cc(CN2CCc3cc(-c4c(C)nc(C)c([C@H](OC(C)(C)C)C(=O)O)c4N4CCC(C)(C)CC4)ccc3C2)cc(C(F)(F)F)c1 [Compound 112, (S)-2-(tert-butoxy)-2-(4-(4,4-dimethylpiperidin-1-yl)-5-(2-(3-methoxy-5-(trifluoromethyl)benzyl)-1,2,3,4-tetrahydroisoquinolin-6-yl)-2,6-dimethylpyridin-3-yl)acetic acid] | < 0.1
Cc1nc(C)c([C@H](OC(C)(C)C)C(=O)O)c(N2CCC(C)(C)CC2)c1-c1ccc2c(c1)CCN(Cc1cccc(C(F)(F)F)c1)C2 [Compound 2, (S)-2-(tert-butoxy)-2-(4-(4,4-dimethylpiperidin-1-yl)-2,6-dimethyl-5-(2-(3-(trifluoromethyl)benzyl)-1,2,3,4-tetrahydroisoquinolin-6-yl)pyridin-3-yl)acetic acid] | < 0.1
Cc1nc(C)c([C@H](OC(C)(C)C)C(=O)O)c(N2CCC(C)(C)CC2)c1-c1ccc2c(c1)CCN(Cc1cccc3c1OCCO3)C2 [Compound 158, (S)-2-(tert-butoxy)-2-(5-(2-((2,3-dihydrobenzo[b][1,4]dioxin-5-yl)methyl)-1,2,3,4-tetrahydroisoquinolin-6-yl)-4-(4,4-dimethylpiperidin-1-yl)-2,6-dimethylpyridin-3-yl)acetic acid] | < 0.1
Cc1ccc(Cl)cc1CN1CCc2cc(-c3c(C)nc(C)c([C@H](OC(C)(C)C)C(=O)O)c3N3CCC(C)(C)CC3)ccc2C1 [Compound 133, (S)-2-(tert-butoxy)-2-(5-(2-(5-chloro-2-methylbenzyl)-1,2,3,4-tetrahydroisoquinolin-6-yl)-4-(4,4-dimethylpiperidin-1-yl)-2,6-dimethylpyridin-3-yl)acetic acid] | < 0.1
Cc1cccc(CN2CCc3cc(-c4c(C)nc(C)c([C@H](OC(C)(C)C)C(=O)O)c4N4CCC(C)(C)CC4)ccc3C2)c1F [Compound 54, (S)-2-(tert-butoxy)-2-(4-(4,4-dimethylpiperidin-1-yl)-5-(2-(2-fluoro-3-methylbenzyl)-1,2,3,4-tetrahydroisoquinolin-6-yl)-2,6-dimethylpyridin-3-yl)acetic acid] | < 0.1
Cc1nc(C)c([C@H](OC(C)(C)C)C(=O)O)c(N2CCC(C)(C)CC2)c1-c1ccc2c(c1)CCN(Cc1cccc(OC(F)F)c1)C2 [Compound 118, (S)-2-(tert-butoxy)-2-(5-(2-(3-(difluoromethoxy)benzyl)-1,2,3,4-tetrahydroisoquinolin-6-yl)-4-(4,4-dimethylpiperidin-1-yl)-2,6-dimethylpyridin-3-yl)acetic acid] | < 0.1
Cc1cc(F)ccc1CN1CCc2cc(-c3c(C)nc(C)c([C@H](OC(C)(C)C)C(=O)O)c3N3CCC(C)(C)CC3)ccc2C1 [Compound 25, (S)-2-(tert-butoxy)-2-(4-(4,4-dimethylpiperidin-1-yl)-5-(2-(4-fluoro-2-methylbenzyl)-1,2,3,4-tetrahydroisoquinolin-6-yl)-2,6-dimethylpyridin-3-yl)acetic acid] | < 0.1
COc1cc(CN2CCc3cc(-c4c(C)nc(C)c([C@H](OC(C)(C)C)C(=O)O)c4N4CCC(C)(C)CC4)ccc3C2)ccc1Cl [Compound 138, (S)-2-(tert-butoxy)-2-(5-(2-(4-chloro-3-methoxybenzyl)-1,2,3,4-tetrahydroisoquinolin-6-yl)-4-(4,4-dimethylpiperidin-1-yl)-2,6-dimethylpyridin-3-yl)acetic acid] | < 0.1
COc1ccc(F)c(F)c1CN1CCc2cc(-c3c(C)nc(C)c([C@H](OC(C)(C)C)C(=O)O)c3N3CCC(C)(C)CC3)ccc2C1 [Compound 87, (S)-2-(tert-butoxy)-2-(5-(2-(2,3-difluoro-6-methoxybenzyl)-1,2,3,4-tetrahydroisoquinolin-6-yl)-4-(4,4-dimethylpiperidin-1-yl)-2,6-dimethylpyridin-3-yl)acetic acid] | < 0.1
Cc1cccc(Cl)c1CN1CCc2cc(-c3c(C)nc(C)c([C@H](OC(C)(C)C)C(=O)O)c3N3CCCC(C)(C)C3)ccc2C1 [Compound 166, (S)-2-(tert-butoxy)-2-(5-(2-(2-chloro-6-methylbenzyl)-1,2,3,4-tetrahydroisoquinolin-6-yl)-4-(3,3-dimethylpiperidin-1-yl)-2,6-dimethylpyridin-3-yl)acetic acid] | < 0.1
Cc1nc(C)c([C@H](OC(C)(C)C)C(=O)O)c(N2CCC(C)(C)CC2)c1-c1ccc2c(c1)CCN(Cc1ccc(Cl)c(F)c1)C2 [Compound 22, (S)-2-(tert-butoxy)-2-(5-(2-(4-chloro-3-fluorobenzyl)-1,2,3,4-tetrahydroisoquinolin-6-yl)-4-(4,4-dimethylpiperidin-1-yl)-2,6-dimethylpyridin-3-yl)acetic acid] | < 0.1
Cc1nc(C)c([C@H](OC(C)(C)C)C(=O)O)c(N2CCC(C)(C)CC2)c1-c1ccc2c(c1)CCN(Cc1ccc(Cl)c(Cl)c1)C2 [Compound 127, (S)-2-(tert-butoxy)-2-(5-(2-(3,4-dichlorobenzyl)-1,2,3,4-tetrahydroisoquinolin-6-yl)-4-(4,4-dimethylpiperidin-1-yl)-2,6-dimethylpyridin-3-yl)acetic acid] | < 0.1
Cc1nc(C)c([C@H](OC(C)(C)C)C(=O)O)c(N2CCC(C)(C)CC2)c1-c1ccc2c(c1)CCN(Cc1cc(Cl)cc(OC(F)(F)F)c1)C2 [Compound 113, (S)-2-(tert-butoxy)-2-(5-(2-(3-chloro-5-(trifluoromethoxy)benzyl)-1,2,3,4-tetrahydroisoquinolin-6-yl)-4-(4,4-dimethylpiperidin-1-yl)-2,6-dimethylpyridin-3-yl)acetic acid] | < 0.1
COc1ccc(F)cc1CN1CCc2cc(-c3c(C)nc(C)c([C@H](OC(C)(C)C)C(=O)O)c3N3CCC(C)(C)CC3)ccc2C1 [Compound 124, (S)-2-(tert-butoxy)-2-(4-(4,4-dimethylpiperidin-1-yl)-5-(2-(5-fluoro-2-methoxybenzyl)-1,2,3,4-tetrahydroisoquinolin-6-yl)-2,6-dimethylpyridin-3-yl)acetic acid] | < 0.1
COc1cc(CN2CCc3cc(-c4c(C)nc(C)c([C@H](OC(C)(C)C)C(=O)O)c4N4CCC(C)(C)CC4)ccc3C2)c(F)cc1F [Compound 94, (S)-2-(tert-butoxy)-2-(5-(2-(2,4-difluoro-5-methoxybenzyl)-1,2,3,4-tetrahydroisoquinolin-6-yl)-4-(4,4-dimethylpiperidin-1-yl)-2,6-dimethylpyridin-3-yl)acetic acid] | < 0.1
COc1cc(F)c(CN2CCc3cc(-c4c(C)nc(C)c([C@H](OC(C)(C)C)C(=O)O)c4N4CCC(C)(C)CC4)ccc3C2)cc1F [Compound 83, (S)-2-(tert-butoxy)-2-(5-(2-(2,5-difluoro-4-methoxybenzyl)-1,2,3,4-tetrahydroisoquinolin-6-yl)-4-(4,4-dimethylpiperidin-1-yl)-2,6-dimethylpyridin-3-yl)acetic acid] | < 0.1
COc1cccc(F)c1CN1CCc2cc(-c3c(C)nc(C)c([C@H](OC(C)(C)C)C(=O)O)c3N3CCC(C)(C)CC3)ccc2C1 [Compound 115, (S)-2-(tert-butoxy)-2-(4-(4,4-dimethylpiperidin-1-yl)-5-(2-(2-fluoro-6-methoxybenzyl)-1,2,3,4-tetrahydroisoquinolin-6-yl)-2,6-dimethylpyridin-3-yl)acetic acid] | < 0.1

Same assay, conditions: Human immunodeficiency virus 1, MT2, 120 h, read-out: EC50 μM

Compound | EC50 [µM]
COc1ccc(C(C)C)cc1CN1CCc2cc(-c3c(C)nc(C)c([C@H](OC(C)(C)C)C(=O)O)c3N3CCC(C)(C)CC3)ccc2C1 [Compound 139, (S)-2-(tert-butoxy)-2-(4-(4,4-dimethylpiperidin-1-yl)-5-(2-(5-isopropyl-2-methoxybenzyl)-1,2,3,4-tetrahydroisoquinolin-6-yl)-2,6-dimethylpyridin-3-yl)acetic acid] | 0.03
Cc1cccc(Cl)c1CN1CCc2cc(-c3c(C)nc(C)c([C@H](OC(C)(C)C)C(=O)O)c3N3CCCC(C)(C)C3)ccc2C1 [Compound 166, (S)-2-(tert-butoxy)-2-(5-(2-(2-chloro-6-methylbenzyl)-1,2,3,4-tetrahydroisoquinolin-6-yl)-4-(3,3-dimethylpiperidin-1-yl)-2,6-dimethylpyridin-3-yl)acetic acid] | 0.023
